Measurements published in patent US9346818B2 (priority 2012, dated 2016).
Entries after “also recorded” stand apart in the source; their conditions may differ. Like-named read-outs stand apart in the source and are kept apart here.

Experiments:
acetylcholinesterase = acetylcholinesterase (Homo sapiens (Human), UniProt P22303); assay: biochemical; assay type: biochemical; details: for potency on acetylcholinesterase compared with positive control drug donepezil hydrochloride: in vitro, enzymology level
Chain of acetylcholinesterase (P22303 32-614, species assumed): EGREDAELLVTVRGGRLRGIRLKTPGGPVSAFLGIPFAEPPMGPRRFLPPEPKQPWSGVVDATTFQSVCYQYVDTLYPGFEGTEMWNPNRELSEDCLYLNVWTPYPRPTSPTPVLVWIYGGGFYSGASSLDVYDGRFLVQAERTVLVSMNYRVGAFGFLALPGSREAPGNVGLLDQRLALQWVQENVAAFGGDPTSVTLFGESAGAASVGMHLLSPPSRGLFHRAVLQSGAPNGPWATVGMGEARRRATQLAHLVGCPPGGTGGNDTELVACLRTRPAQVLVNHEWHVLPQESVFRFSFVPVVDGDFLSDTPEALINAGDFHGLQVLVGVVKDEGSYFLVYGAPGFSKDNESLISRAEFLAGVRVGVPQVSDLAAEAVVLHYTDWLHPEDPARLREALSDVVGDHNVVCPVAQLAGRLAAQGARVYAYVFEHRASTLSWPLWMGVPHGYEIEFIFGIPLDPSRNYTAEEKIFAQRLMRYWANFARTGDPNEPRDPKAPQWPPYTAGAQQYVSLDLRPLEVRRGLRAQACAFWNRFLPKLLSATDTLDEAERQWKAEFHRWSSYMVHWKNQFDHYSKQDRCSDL

[1] = tested on: learning and memory disorder of mice induced by scopolamine; assay: Morris water maze test, senile dementia mice model induced by scopolamine; assay type: in vivo; details: Table 6, scopolamine 1 mg/kg
[2] = modified Ellman method, read-out: IC50 (nM), inhibition activity on acetylcholinesterase
[3] = read-out: IC50 (nM), inhibition activity on acetylcholinesterase

O=C1c2cc3c(cc2C(=O)N1CCC1CCN(Cc2ccc(F)cc2)CC1)OCO3 [Compound I-4, 6-[2-[1-[(4-fluorophenyl)methyl]-4-piperidyl]ethyl]-[1,3]dioxolo[4,5-f]isoindole-5,7-dione]
potency on acetylcholinesterase compared with positive control drug donepezil hydrochloride (acetylcholinesterase): slightly lower potency than the positive control drug; also recorded: comparable inhibition activity on acetylcholinesterase with donepezil hydrochloride | IC50 (acetylcholinesterase; [2]): 167 nM

CC1c2cc3c(cc2C(=O)N1CCC1CCN(Cc2cccc(F)c2)CC1)OCO3 (stereo not drawn) [Compound I-11, 6-[2-[1-[(3-fluorophenyl)methyl]-4-piperidyl]ethyl]-5-methyl-5H-[1,3]dioxolo[4,5-f]isoindol-7-one]
potency on acetylcholinesterase compared with positive control drug donepezil hydrochloride (acetylcholinesterase): even lower | IC50 (acetylcholinesterase; [2]): 889 nM

CC1c2cc3c(cc2C(=O)N1CCC1CCN(Cc2ccccc2F)CC1)OCO3 (stereo not drawn) [Compound I-10, 6-[2-[1-[(2-fluorophenyl)methyl]-4-piperidyl]ethyl]-5-methyl-5H-[1,3]dioxolo[4,5-f]isoindol-7-one]
potency on acetylcholinesterase compared with positive control drug donepezil hydrochloride (acetylcholinesterase): slightly lower potency than the positive control drug | IC50 (acetylcholinesterase; [2]): 239 nM

Cc1ccc(CN2CCC(CCN3C(=O)c4cc5c(cc4C34CC4)OCO5)CC2)[nH]1 [Compound I-40, 6-[2-[1-[(5-methyl-1H-pyrrol-2-yl)methyl]-4-piperidyl]ethyl]spiro[[1,3]dioxolo[4,5-f]isoindole-7,1′-cyclopropane]-5-one]
potency on acetylcholinesterase compared with positive control drug donepezil hydrochloride (acetylcholinesterase): relative low activity | IC50 (acetylcholinesterase; [3]): > 2000 nM

O=C1c2cc3c(cc2C2(CC2)N1CCC1CCN(Cc2cccnc2)CC1)OCO3 [Compound I-30, 6-[2-[1-(3-pyridylmethyl)-4-piperidyl]ethyl]spiro[[1,3]dioxolo[4,5-f]isoindole-7,1′-cyclopropane]-5-one]
potency on acetylcholinesterase compared with positive control drug donepezil hydrochloride (acetylcholinesterase): relative low activity | IC50 (acetylcholinesterase; [2]): > 2000 nM

CC1c2cc3c(cc2C(=O)N1CCC1CCN(Cc2ccccc2)CC1)OCO3 (stereo not drawn) [Compound I-9, 6-[2-(1-benzyl-4-piperidyl)ethyl]-5-methyl-5H-[1,3]dioxolo[4,5-f]isoindol-7-one]
latent period day 1 ([1]; 5 mg/kg intragastric): 58.9 ± 4.0 s | latent period day 2 ([1]; 5 mg/kg intragastric): 60 ± 0 s | latent period day 3 ([1]; 5 mg/kg intragastric): 51.2 ± 11.0 s | latent period day 4 ([1]; 5 mg/kg intragastric): 53.4 ± 11.8 s | latent period day 5 ([1]; 5 mg/kg intragastric): 51.1 ± 11.5 s | times of crossing platform ([1]; 5 mg/kg intragastric): 1.27 ± 1.44 | latent period day 1 ([1]; 10 mg/kg intragastric): 58.3 ± 6.5 s | latent period day 2 ([1]; 10 mg/kg intragastric): 56.6 ± 9.1 s | latent period day 3 ([1]; 10 mg/kg intragastric): 56.5 ± 6.3 s | latent period day 4 ([1]; 10 mg/kg intragastric): 51.1 ± 11.6 s | latent period day 5 ([1]; 10 mg/kg intragastric): 49.2 ± 16.9 s | times of crossing platform ([1]; 10 mg/kg intragastric): 1.80 ± 1.74

O=C1c2cc3c(cc2C2(CC2)N1CCC1CCN(Cc2c(F)cccc2F)CC1)OCO3 [Compound I-25, 6-[2-[1-[(2,6-difluorophenyl)methyl]-4-piperidyl]ethyl]spiro[[1,3]dioxolo[4,5-f]isoindole-7,1′-cyclopropane]-5-one]
potency on acetylcholinesterase compared with positive control drug donepezil hydrochloride (acetylcholinesterase): slightly lower potency than the positive control drug | IC50 (acetylcholinesterase; [3]): 249 nM

O=C1c2cc3c(cc2CN1CCC1CCN(Cc2ccccc2)CC1)OCO3 [Compound I-5, 6-[2-(1-benzyl-4-piperidyl)ethyl]-5H-[1,3]dioxolo[4,5-f]isoindol-7-one]
IC50 (acetylcholinesterase; IC50 (nM), inhibition activity on acetylcholinesterase, modified Ellman method): 502 nM | potency on acetylcholinesterase compared with positive control drug donepezil hydrochloride (acetylcholinesterase): even lower

O=C1c2cc3c(cc2C(=O)N1CCC1CCN(Cc2ccccn2)CC1)OCO3 [Compound I-36, 6-[2-[1-(2-pyridylmethyl)-4-piperidyl]ethyl]-[1,3]dioxolo[4,5-f]isoindole-5,7-dione]
potency on acetylcholinesterase compared with positive control drug donepezil hydrochloride (acetylcholinesterase): slightly lower potency than the positive control drug | IC50 (acetylcholinesterase; [2]): 161 nM

CC1c2cc3c(cc2C(=O)N1CCC1CCN(Cc2ccc(F)cc2)CC1)OCO3 (stereo not drawn) [Compound I-12, 6-[2-[1-[(4-fluorophenyl)methyl]-4-piperidyl]ethyl]-5-methyl-5H-[1,3]dioxolo[4,5-f]isoindol-7-one]
potency on acetylcholinesterase compared with positive control drug donepezil hydrochloride (acetylcholinesterase): relative low activity | IC50 (acetylcholinesterase; [2]): > 2000 nM

O=C1c2cc3c(cc2C2(CC2)N1CCC1CCN(Cc2ccccc2C(F)(F)F)CC1)OCO3 [Compound I-22, 6-[2-[1-[[2-(trifluoromethyl)phenyl]methyl]-4-piperidyl]ethyl]spiro[[1,3]dioxolo[4,5-f]isoindole-7,1′-cyclopropane]-5-one]
potency on acetylcholinesterase compared with positive control drug donepezil hydrochloride (acetylcholinesterase): relative low activity | IC50 (acetylcholinesterase; [2]): > 2000 nM

O=C1c2cc3c(cc2C2(CC2)N1CCC1CCN(Cc2ncccn2)CC1)OCO3 [Compound I-32, 6-[2-[1-(pyrimidin-2-ylmethyl)-4-piperidyl]ethyl]spiro[[1,3]dioxolo[4,5-f]isoindole-7,1′-cyclopropane]-5-one]
potency on acetylcholinesterase compared with positive control drug donepezil hydrochloride (acetylcholinesterase): relative low activity | IC50 (acetylcholinesterase; [2]): > 2000 nM

O=C1c2cc3c(cc2C(=O)N1CCC1CCN(Cc2cccnn2)CC1)OCO3 [Compound I-37, 6-[2-[1-(pyridazin-3-ylmethyl)-4-piperidyl]ethyl]-[1,3]dioxolo[4,5-f]isoindole-5,7-dione]
potency on acetylcholinesterase compared with positive control drug donepezil hydrochloride (acetylcholinesterase): even lower | IC50 (acetylcholinesterase; [2]): 905 nM

O=C1c2cc3c(cc2C2(CC2)N1CCC1CCN(Cc2ccn[nH]2)CC1)OCO3 [Compound I-41, 6-[2-[1-(1H-pyrazol-5-ylmethyl)-4-piperidyl]ethyl]spiro[[1,3]dioxolo[4,5-f]isoindole-7,1′-cyclopropane]-5-one]
potency on acetylcholinesterase compared with positive control drug donepezil hydrochloride (acetylcholinesterase): even lower | IC50 (acetylcholinesterase; [3]): 990 nM

O=C1c2cc3c(cc2CN1CCC1CCN(Cc2cccc(F)c2)CC1)OCO3 [Compound I-7, 6-[2-[1-[(3-fluorophenyl)methyl]-4-piperidyl]ethyl]-5H-[1,3]dioxolo[4,5-f]isoindol-7-one]
potency on acetylcholinesterase compared with positive control drug donepezil hydrochloride (acetylcholinesterase): even lower | IC50 (acetylcholinesterase; [2]): 486 nM

O=C1c2cc3c(cc2C(=O)N1CCC1CCN(Cc2ccccc2F)CC1)OCO3 [Compound I-2, 6-[2-[1-[(2-fluorophenyl)methyl]-4-piperidyl]ethyl]-[1,3]dioxolo[4,5-f]isoindole-5,7-dione]
potency on acetylcholinesterase compared with positive control drug donepezil hydrochloride (acetylcholinesterase): slightly higher potency than the positive control drug; also recorded: comparable inhibition activity on acetylcholinesterase with donepezil hydrochloride | IC50 (acetylcholinesterase; [3]): 80 nM

N#Cc1ccccc1CN1CCC(CCN2C(=O)c3cc4c(cc3C23CC3)OCO4)CC1 [Compound I-24, 6-[2-[1-[(2-cyanophenyl)methyl]-4-piperidyl]ethyl]spiro[[1,3]dioxolo[4,5-f]isoindole-7,1′-cyclopropane]-5-one]
potency on acetylcholinesterase compared with positive control drug donepezil hydrochloride (acetylcholinesterase): relative low activity | IC50 (acetylcholinesterase; [2]): > 2000 nM

CC1(C)c2cc3c(cc2C(=O)N1CCC1CCN(Cc2ccc(F)cc2)CC1)OCO3 [Compound I-16, 6-[2-[1-[(4-fluorophenyl)methyl]-4-piperidyl]ethyl]-7,7-dimethyl-[1,3]dioxolo[4,5-f]isoindol-5-one]
potency on acetylcholinesterase compared with positive control drug donepezil hydrochloride (acetylcholinesterase): relative low activity | IC50 (acetylcholinesterase; [2]): > 2000 nM

O=C1c2cc3c(cc2CN1CCC1CCN(Cc2ccc(F)cc2)CC1)OCO3 [Compound I-8, 6-[2-[1-[(4-fluorophenyl)methyl]-4-piperidyl]ethyl]-5H-[1,3]dioxolo[4,5-f]isoindol-7-one]
potency on acetylcholinesterase compared with positive control drug donepezil hydrochloride (acetylcholinesterase): even lower | IC50 (acetylcholinesterase; [2]): 658 nM
